Experimental findings from ChEMBL document CHEMBL3351611, “Diversity-oriented synthesis-facilitated medicinal chemistry: toward the development of novel antimalarial agents” (J Med Chem, 2014) are described below.

In brackets after ≈: the same amount, converted by molar mass.

Data set [1] has as its system Plasmodium falciparum. Put plainly: Antimalarial activity against Plasmodium falciparum Dd2 assessed as inhibition of parasite proliferation. It counts as functional.
Data set [2] in a line: Solubility in PBS buffet at pH 7.4 at 100 uM incubated for 18 hrs by UPLC-MS method. The data set is classed as physicochemical. The note with it: buffer, pH 7.4, 18 h, 100 µM.
A short description of data set [3]: Stability in mouse microsomes assessed as compound remaining at 1 uM after 1 hr at 37 degC by UPLC-MS method. The settings on record: read-out: Stability. It counts as ADME, Microsome.
A short description of data set [4]: Lipophilicity, log D of the compound by HPLC method. It counts as physicochemical.

For orientation: GI50 means the concentration that inhibits growth by half. As a reminder, the solubility is the concentration that dissolves in the medium under given conditions. A higher solubility goes with a readily soluble substance. Regarding `COc1ccc(COC[C@H](C)N2C[C@@H](C)[C@H](CN(C)S(=O)(=O)c3ccc(F)cc3)OCCCC[C@H](C)Oc3ncc(F)cc3C2=O)cc1`, in data set [1], the GI50 was 162 nM. In addition, the solubility in data set [2] was less than 5 µM.
On to `C[C@@H]1CN([C@@H](C)CN(C)C)C(=O)c2cccnc2O[C@@H](C)CCCCO[C@H]1CN(C)S(=O)(=O)c1ccc(F)cc1`, for which the GI50 in data set [1] is 231 nM. In addition, the remaining at 1 h, 1 µM in data set [3] is less than 5%. This compound also had a solubility in data set [2] greater than 100 µM.
The corresponding values for `CCN(CC)C[C@H](C)N1C[C@@H](C)[C@H](CN(C)S(=O)(=O)c2ccc(F)cc2)OCCCC[C@H](C)Oc2ncccc2C1=O` are 79 nM, less than 5% and greater than 100 µM.
For the compound `C[C@@H]1CN([C@@H](C)CN(C)Cc2cc(F)ccc2F)C(=O)c2cccnc2O[C@@H](C)CCCCO[C@H]1CN(C)S(=O)(=O)c1ccc(F)cc1`, the 50% growth inhibitory concentration (GI50) in data set [1] was determined as 10 nM. The compound further showed a solubility in data set [2] of less than 5 µM.
The corresponding values for `COc1ccc(COC[C@H](C)N2C[C@@H](C)[C@H](CN(C)S(=O)(=O)c3ccc(F)cc3)OCCCC[C@H](C)Oc3ccsc3C2=O)cc1` are 481 nM and less than 5 µM.
The corresponding values for `COc1ccc(COC[C@H](C)N2C[C@@H](C)[C@H](CN(C)S(=O)(=O)c3ccc(F)cc3)OCCCC[C@H](C)Oc3c(cnn3C)C2=O)cc1` are 375 nM and 15 µM (≈ 10.1 µg/mL).
The corresponding values for `COc1ccc(COC[C@H](C)N2CC[C@H](CN(C)S(=O)(=O)c3ccc(F)cc3)OCCCC[C@H](C)Oc3ccc(NC(=O)Nc4c(C)noc4C)cc3C2=O)cc1` are 20 nM and less than 5 µM.
As to `Cc1noc(C)c1NC(=O)Nc1ccc2c(c1)C(=O)N([C@@H](C)CN(C)C)CC[C@H](CN(C)S(=O)(=O)c1ccc(F)cc1)OCCCC[C@H](C)O2`, the GI50 in data set [1] is 71 nM. In addition, the remaining at 1 h, 1 µM in data set [3] worked out at 2%. Also, the solubility in data set [2] worked out at 99 µM (≈ 71 µg/mL).
Regarding `COc1ccc(COC[C@H](C)N2C[C@@H](C)[C@H](CN(C)S(=O)(=O)c3ccc(F)cc3)OCCCCCOc3ccc(NC(=O)Nc4c(C)noc4C)cc3C2=O)cc1`, the GI50 in data set [1] came to 6 nM.
In the case of `Cc1noc(C)c1NC(=O)Nc1ccc2c(c1)C(=O)N([C@@H](C)CN(C)C)C[C@@H](C)[C@H](CN(C)S(=O)(=O)c1ccc(F)cc1)OCCCCCO2`, the GI50 in data set [1] came out at 111 nM. This compound showed a solubility in data set [2] greater than 100 µM.
As to `COc1ccc(COC[C@H](C)N2C[C@@H](C)[C@H](CN(C)S(=O)(=O)c3ccc(F)cc3)OCCCCCNc3ccc(NC(=O)Nc4c(C)noc4C)cc3C2=O)cc1`, the GI50 in data set [1] came to 76 nM. In data set [2], this compound had a solubility of less than 5 µM.
With `COc1ccc(COC[C@H](C)N2C[C@@H](C)[C@H](CN(C)S(=O)(=O)c3ccc(F)cc3)OCCCCOc3ccc(NC(=O)Nc4c(C)noc4C)cc3C2=O)cc1`, the GI50 in data set [1] was found to be 17 nM. For the same compound, the remaining at 1 h, 1 µM in data set [3] was found to be 17%. The same compound had a solubility in data set [2] of less than 5 µM.
The like results for `CNC[C@H](C)N1C[C@@H](C)[C@H](CN(C)S(=O)(=O)c2ccc(F)cc2)OCCCCOc2ccc(NC(=O)Nc3c(C)noc3C)cc2C1=O` were, in that order, 624 nM, 65% and greater than 100 µM.
The like results for `Cc1noc(C)c1NC(=O)Nc1ccc2c(c1)C(=O)N([C@@H](C)CN(C)C)C[C@@H](C)[C@H](CN(C)S(=O)(=O)c1ccc(F)cc1)OCCCCO2` were, in that order, 91 nM, 15% and greater than 100 µM.
In the case of `COc1ccc(COC[C@H](C)N2C[C@@H](C)[C@H](CN(C)S(=O)(=O)c3ccc(F)cc3)OCCCOc3ccc(NC(=O)Nc4c(C)noc4C)cc3C2=O)cc1`, the GI50 in data set [1] came to 767 nM. The compound further displayed a solubility in data set [2] of less than 5 µM.
Turning to `COc1ccc(COC[C@H](C)N2C[C@@H](C)[C@H](CN(C)S(=O)(=O)c3ccc(F)cc3)OCCOc3ccc(NC(=O)Nc4c(C)noc4C)cc3C2=O)cc1`, the GI50 in data set [1] is 2970 nM. The compound also displayed a solubility in data set [2] of 6 µM (≈ 4.61 µg/mL).
Regarding `COc1ccc(COC[C@H](C)N2C[C@@H](C)[C@H](CN(C)S(=O)(=O)c3ccc(F)cc3)Oc3ccc(NC(=O)Nc4c(C)noc4C)cc3C2=O)cc1`, the 50% growth inhibitory concentration (GI50) in data set [1] was greater than 5000 nM.
On to `COc1ccc(COC[C@H](C)N2C[C@@H](C)[C@H](CN(C)S(=O)(=O)c3ccc(F)cc3)OCCCC[C@H](C)Oc3ccc(NC(=O)Nc4c(C)noc4C)cc3C2=O)cc1`, for which the GI50 in data set [1] worked out at 0.88 nM. The solubility in data set [2] was less than 5 µM.
The logD is the decadic logarithm of the distribution of all forms, ionised or not, between an organic phase and buffer at a given pH. A high value points to higher lipophilicity. In turn, `C[C@@H]1CN([C@@H](C)CN(C)C)C(=O)c2cc(NC(=O)Nc3ccc(F)cc3)ccc2O[C@@H](C)CCCCO[C@H]1CN(C)S(=O)(=O)c1ccc(F)cc1` gave a pH-dependent lipophilicity (logD) in data set [4] of 3.5. Moreover, the GI50 in data set [1] came to 1.4 nM. The remaining at 1 h, 1 µM in data set [3] was less than 5%. This compound also displayed a solubility in data set [2] of less than 5 µM.
The corresponding values for `C[C@@H]1CN([C@@H](C)CN(C)C)C(=O)c2cc(NC(=O)NC3COC3)ccc2O[C@@H](C)CCCCO[C@H]1CN(C)S(=O)(=O)c1ccc(F)cc1` are 1.1, 32 nM, 8% and greater than 100 µM.
The like results for `CNC[C@H](C)N1C[C@@H](C)[C@H](CN(C)S(=O)(=O)c2ccc(F)cc2)OCCCC[C@H](C)Oc2ccc(NC(=O)Nc3c(C)noc3C)cc2C1=O` were, in that order, 1.7, 320 nM, 51% and greater than 100 µM.
As to `CCN(CC)C[C@H](C)N1C[C@@H](C)[C@H](CN(C)S(=O)(=O)c2ccc(F)cc2)OCCCC[C@H](C)Oc2ccc(NC(=O)Nc3c(C)noc3C)cc2C1=O`, the logD in data set [4] was 3.1. For the same compound, the GI50 in data set [1] is 5 nM. In data set [3], the remaining at 1 h, 1 µM is 5%. The solubility in data set [2] was found to be 8 µM (≈ 6.07 µg/mL).
Consider `COc1ccc(COC[C@H](C)N2C[C@@H](C)[C@H](CN(C)S(=O)(=O)c3ccc(F)cc3)OCCCC[C@H](C)OCCC2=O)cc1`, for which the GI50 in data set [1] is 3410 nM. For the same compound, the solubility in data set [2] is less than 5 µM.
The corresponding values for `COc1ccc(COC[C@H](C)N2C[C@@H](C)[C@H](CN(C)S(=O)(=O)c3ccc(F)cc3)OCCCC[C@H](C)Oc3ccc(F)cc3C2=O)cc1` are 162 nM and less than 5 µM.
The like results for `COc1ccc(COC[C@H](C)N2C[C@@H](C)[C@H](CN(C)S(=O)(=O)c3ccc(F)cc3)OCCCC[C@H](C)Oc3cc(F)ccc3C2=O)cc1` were, in that order, 38 nM and less than 5 µM.
For `COc1ccc(COC[C@H](C)N2C[C@@H](C)[C@H](CN(C)S(=O)(=O)c3ccc(F)cc3)OCCCC[C@H](C)Oc3cc(C(F)(F)F)ccc3C2=O)cc1`, the GI50 in data set [1] amounted to 48 nM. Besides, in data set [2], the solubility was less than 5 µM.
The corresponding values for `COc1ccc(COC[C@H](C)N2C[C@@H](C)[C@H](CN(C)S(=O)(=O)c3ccc(F)cc3)OCCCC[C@H](C)Oc3cccnc3C2=O)cc1` are 403 nM and less than 5 µM.
The corresponding values for `COc1ccc(COC[C@H](C)N2C[C@@H](C)[C@H](CN(C)S(=O)(=O)c3ccc(F)cc3)OCCCC[C@H](C)Oc3ncccc3C2=O)cc1` are 59 nM and less than 5 µM.
The corresponding values for `COc1ccc(COC[C@H](C)N2C[C@@H](C)[C@H](CN(C)S(=O)(=O)c3ccc(F)cc3)OCCCC[C@H](C)Oc3nccnc3C2=O)cc1` are 214 nM and less than 5 µM.
